Data from article PMC6692352, “DF2726A, a new IL-8 signalling inhibitor, is able to counteract chemotherapy-induced neuropathic pain” (Scientific Reports, 2019).

What was measured:
[1] = tested on: CXCL1-induced hPMN chemotaxis; assay: CXCL1-induced hPMN chemotaxis, 48-well microchemotaxis chamber; assay type: cell-based, human; details: hPMN pre-incubated 15 min at 37°C, migration 45 min
Description: (§1) chemotherapy-induced neuropathic pain”
(§2) Benedetti, Antonio Giordano, Annamaria Cimini, Marcello Allegretti.
(§3) Chemokines were from PeproTech (London, UK). Chemicals and cell culture reagents were from Sigma Aldrich (Saint Louis, MI, USA).
(§4) Cell isolation and culture
(§5) L’Aquila, Italy. Ethical clearance was obtained to perform these experiments. Human PMNs were […]
(§6) blood cells as previously described 1.
(§7) Cell viability, as measured by Trypan Blue dye exclusion, was greater than 98%. […]
(§8) microchemotaxis chamber, as previously described 2. Briefly, 25 µl of control medium (PBS for […]
(§9) the lower compartment of the chemotaxis chamber. […]
(§10) vehicle were seeded in the upper compartment. The two compartments were separated by 5 µm pre-size polycarbonate filter (polyvinylpyrrolidone-free for PMN chemotaxis). The chamber was […]
(§11) Physicochemical characterization […]
(§12) and a turbidity-sensing device. […]
(§13) water/HBSS to a final concentration of 10 μM. Cell membrane homogenates (48 μg protein) were […]

[2] = tested on: spontaneous human polimorphonuclear neutrophil (hPMN) migration; assay: Spontaneous hPMN migration; assay type: cell-based
Description: as §1, §2, §3, §4, §5, §6, §7, §8, §9, §10, §11, §12, §13

[3] = Aqueous solubility (SiriusT3); assay type: physicochemical
Experimental: as §10, §11, §12, §13

GFAP = assay: Western blot of DRG of oxaliplatin rats, astrocyte marker GFAP; assay type: in vivo, male Wistar rats; details: 30 mg/kg os; p < 0.01 vs OXA rats
Experimental: Animals were sacrificed and dorsal root ganglia (DRG) (L4-L6) were removed and stored at […]. They were homogenized on ice-cold lysis buffer [20 mM Tris–HCl (pH 7.5), 10 mM NaF, 150 mM NaCl, 1% Nonidet P-40, 1 mM phenylmethylsulfonyl fluoride, 1 mM Na3VO4, leupeptin and trypsin inhibitor 10 μg/mL; 20 µl/sample, as previously described.
After 1 h, tissue lysates were obtained by centrifugation at 20,000 g for 15 min at 4 °C. Protein concentrations were estimated by the Bio-Rad protein assay using bovine serum albumin as standard.
DRG lysate proteins (30 μg) were dissolved in Laemmli sample buffer, boiled for 5 min, and separated on SDS-polyacrylamide gel elctrophoresis and transferred onto nitrocellulose membrane (240 mA for 40 min at room temperature). […] The protein bands were scanned and densitometrically analyzed with a model GS-700 imaging densitometer (Bio-Rad Laboratories, Milan, Italy). […]

p-STAT3 = p-STAT3 western blotting in F11-derived neurons; assay type: cell-based; details: 24 h
Experimental: Following neuronal differentiation, neurons were treated for 24 h with DF2726A (1 μM final concentration), oxaliplatin (Sigma-Aldrich; 20 µM final concentration), or the combination of the two molecules.
Control and treated cells were collected and lysed in ice-cold RIPA buffer (PBS pH 7.4 containing 0.5% sodium deoxycolate, 1% Igepal, 0.1% SDS, 5 mM EDTA, 1% protease and phosphatase inhibitor cocktails; Sigma-Aldrich) as described in[22],[33]. Protein lysates (30 μg) were separated on 8–12% SDS-polyacrilamide gel and electroblotted onto polyvinyldifluoride membrane (PVDF; Sigma-Aldrich). Nonspecific binding sites were blocked by 5% non-fat dry milk (Bio-Rad Laboratories, Hercules, CA, USA) in Tris buffered saline (TBS: 20 mM Tris- HCl, pH 7.4, containing 150 mM NaCl) for 30 min at RT. […] The relative densities of immunoreactive bands were determined and normalized HRP-conjugated β-actin, using ImageJ software. […]

PI3K/p-cortactin = PI3K/p-cortactin western blotting in F11-derived neurons; assay type: cell-based; details: 24 h
[4] = DF2726A 1 µM + oxaliplatin 20 µM

In the case of CC(C)(C(=O)O)c1ccc(Nc2nc(C(F)(F)F)cs2)cc1 [DF2726A], the IC50 [1] is reported as 8 nM, the “Inhibition of spontaneous hPMN migration per se” value [2] is reported as “did not inhibit” and the Acqueous solubility [3] is reported as >30 mg/mL. For the same compound, the “GFAP expression in DRG of oxaliplatin rats” value (GFAP) was “significantly reduced the expression”, the “p-STAT3 levels, oxaliplatin-treated neurons” value (p-STAT3; [4]) was “counteracted this effect” and the “p-STAT3 levels, paclitaxel-treated neurons” value (p-STAT3; DF2726A + paclitaxel 10 nM) was “counteracted this effect”. For the same compound, the “PI3K/p-cortactin expression, oxaliplatin-treated neurons” value (PI3K/p-cortactin; [4]) was “attenuated this effect” and the “PI3K/p-cortactin expression, paclitaxel-treated neurons” value (PI3K/p-cortactin; DF2726A + paclitaxel 10 nM) was “attenuated this effect”.
